{
  "source": "patent US20240307547A1",
  "about": "“NOVEL COMPOUNDS WHICH BIND TO CEREBLON, AND METHODS OF USE THEREOF” (Captor Therapeutics S.A., priority 2020, published 2024); on CRBN binding Ki: 25 nM CRBN-DDB1",
  "key": {"IKZF1": {"tested_on": "IKZF1", "experiment": "IKZF1 degradation assay, H929 cell line (western blot densitometry)", "assay_type": "cell-based", "conditions": "H929 cells, after 24 h", "method": "(§1) H929 cells were maintained in RPMI-1640 medium, supplemented with penicillin/streptomycin, 10% Fetal Bovine Serum (FBS) and 0.05 mM 2-Mercaptoethanol. Cells were seeded on 6- or 12-well plates, and the compounds to be tested were added at the desired concentration range. Final DMSO concentration was 0.25%. After 24 h incubation (37° C., 5% CO2), cells were harvested, washed and cell lysates were prepared using RIPA lysis buffer. The amount of protein was determined via BCA assay, and the appropriate quantity was then loaded on the precast gel for the protein separation. After primary and secondary Ab staining, the membranes were washed and signals developed. The densitometry analysis was implemented to obtain the numeric values used later in the protein level evaluation process.\nDensitometry values are normalized to the loading control (β-ACTIN) and presented as % of DMSO control in Table 3, below, using the following labels: • ≤25% for 0-25% of IKZF1 protein reduction, • >25% for 26-74% of IKZF1 protein reduction, • ≥75% for 75-100% of IKZF1 protein reduction."}, "[1]": {"molecular_target": "CRBN-DDB1 protein complex (Homo sapiens, UniProt Q96SW2)", "sequence (Q96SW2 whole entry)": "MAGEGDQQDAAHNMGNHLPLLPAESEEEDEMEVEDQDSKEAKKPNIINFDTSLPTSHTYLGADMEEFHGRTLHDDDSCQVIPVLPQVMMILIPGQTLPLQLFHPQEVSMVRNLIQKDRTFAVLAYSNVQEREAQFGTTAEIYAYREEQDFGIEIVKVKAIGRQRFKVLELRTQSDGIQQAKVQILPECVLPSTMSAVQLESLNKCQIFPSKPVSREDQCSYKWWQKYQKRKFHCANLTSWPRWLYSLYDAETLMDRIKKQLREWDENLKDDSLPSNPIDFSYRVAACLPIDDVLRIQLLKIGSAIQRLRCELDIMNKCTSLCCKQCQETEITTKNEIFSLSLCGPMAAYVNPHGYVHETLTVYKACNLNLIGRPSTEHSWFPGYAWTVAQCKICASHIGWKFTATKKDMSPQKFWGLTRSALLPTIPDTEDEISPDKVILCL", "sequence (Q16531 whole entry partner)": "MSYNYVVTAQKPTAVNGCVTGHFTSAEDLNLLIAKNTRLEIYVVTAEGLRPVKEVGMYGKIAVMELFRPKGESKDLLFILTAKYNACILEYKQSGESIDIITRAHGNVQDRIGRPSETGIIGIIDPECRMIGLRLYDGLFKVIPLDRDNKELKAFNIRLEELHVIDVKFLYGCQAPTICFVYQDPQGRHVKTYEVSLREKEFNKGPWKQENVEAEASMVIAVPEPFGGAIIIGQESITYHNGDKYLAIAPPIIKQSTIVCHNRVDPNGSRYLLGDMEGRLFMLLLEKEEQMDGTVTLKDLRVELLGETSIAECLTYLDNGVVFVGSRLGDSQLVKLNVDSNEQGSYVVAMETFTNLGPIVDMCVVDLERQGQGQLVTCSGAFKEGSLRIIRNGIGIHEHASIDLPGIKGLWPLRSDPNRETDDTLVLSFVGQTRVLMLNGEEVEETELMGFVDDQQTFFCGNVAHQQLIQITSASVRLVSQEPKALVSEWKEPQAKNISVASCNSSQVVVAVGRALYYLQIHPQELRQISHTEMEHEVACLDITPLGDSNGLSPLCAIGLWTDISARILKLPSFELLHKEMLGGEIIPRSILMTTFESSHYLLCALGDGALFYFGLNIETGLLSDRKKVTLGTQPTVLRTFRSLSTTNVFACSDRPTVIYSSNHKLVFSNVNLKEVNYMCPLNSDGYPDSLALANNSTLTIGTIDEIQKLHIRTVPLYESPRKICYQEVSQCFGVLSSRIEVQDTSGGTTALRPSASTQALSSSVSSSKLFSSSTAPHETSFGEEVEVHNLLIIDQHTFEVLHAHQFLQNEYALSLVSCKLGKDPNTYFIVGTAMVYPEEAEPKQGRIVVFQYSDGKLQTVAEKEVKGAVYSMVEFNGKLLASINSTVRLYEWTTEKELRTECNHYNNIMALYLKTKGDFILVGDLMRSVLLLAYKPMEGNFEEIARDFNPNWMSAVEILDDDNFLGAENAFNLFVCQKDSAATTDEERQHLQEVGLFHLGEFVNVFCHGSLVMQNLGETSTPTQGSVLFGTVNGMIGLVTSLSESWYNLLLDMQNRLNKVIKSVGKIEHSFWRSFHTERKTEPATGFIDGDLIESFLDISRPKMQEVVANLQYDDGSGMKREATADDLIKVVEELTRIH", "experiment": "Fluorescence polarization (FP) assay, displacement of Cy5-labelled thalidomide", "conditions": "read-out: CRBN binding Ki", "method": "The test solution was added to a 384-well assay plate.\nThe plate was spun-down (1 min, 1000 rpm, 22° C.) and then shaken using a VibroTurbulator for 10 min at room temperature (20-25° C.), with the frequency set to level 3. The assay plate with protein and the tracer was incubated for 60 min at room temperature (20-25° C.) prior to read-out with a plate reader.\nThe FP experiment was carried out with various concentrations of the test compounds in order to measure Ki values."}, "H929 (myeloma)": {"tested_on": "H929 (myeloma)", "experiment": "Viability, CTG (CellTiter-Glo) assay", "assay_type": "cell-based", "conditions": "Homo sapiens, NCI-H929, H929, 72 hours, 100% = DMSO, read-out: Average of % viability of quadruplicate", "method": "Three thousand cells in 50 μL of culture medium were plated in 384-well plate, and incubated with 50, 13, and 2 μM of each compound for 72 hours. ATP content in the remaining cells after the treatment was quantitated with the CellTiter-Glo Luminescent Viability Assay Kit (Promega). The activity of the compound at each concentration was shown as percentage viability; 100% viability was the ATP content in the cells incubated with DMSO, the carrier of the compounds."}, "SALL4": {"tested_on": "SALL4", "experiment": "SALL4 degradation assay, Kelly cell line (western blot densitometry)", "assay_type": "cell-based", "conditions": "Kelly cells, after 24 h", "method": "as §1, with “Kelly” for “H929”, “penicillin/streptomycin and” for “penicillin/streptomycin,”, “(FBS).” for “(FBS) and 0.05 mM 2-Mercaptoethanol.”, “6-well” for “6- or 12-well”, “were” for “were harvested,”, “antibody” for “Ab”\nDensitometry values are normalized to the loading control (β-ACTIN) and presented as % of DMSO control in Table 2, below, using the following labels: • ≤25% for 0-25% of SALL4 protein reduction, • >25% for 26-74% of SALL4 protein reduction, • ≥75% for 75-100% of SALL4 protein reduction."}, "IKZF3": {"tested_on": "IKZF3", "experiment": "IKZF3 degradation assay, H929 cell line (western blot densitometry)", "assay_type": "cell-based", "conditions": "H929 cells, after 24 h", "method": "as §1, with “penicillin/streptomycin and” for “penicillin/streptomycin,”\nDensitometry values are normalized to the loading control (β-ACTIN) and presented as % of DMSO control in Tables 4A and 4B, below, using the following labels: • ≤25% for 0-25% of IKZF3 protein reduction, • >25% for 26-74% of IKZF3 protein reduction, • ≥75% for 75-100% of IKZF3 protein reduction."}},
  "data": [
    {"smiles": "Cc1nc2cccc(N)c2cc1C1CCC(=O)NC1=O", "note": "(stereo not shown) [Compound 1, 3-(5-amino-2-methylquinolin-3-yl)piperidine-2,6-dione]", "values": [
      {"measurement": "% of IKZF1 protein reduction", "setting": "IKZF1; at 1 μM", "result": ">25% (>25% for 26-74% of IKZF1 protein reduction)"},
      {"measurement": "% of IKZF1 protein reduction", "setting": "IKZF1; at 10 μM", "result": "≥75% (≥75% for 75-100% of IKZF1 protein reduction)"},
      {"measurement": "% of IKZF1 protein reduction", "setting": "IKZF1; at 20 μM", "result": "≥75% (≥75% for 75-100% of IKZF1 protein reduction)"},
      {"measurement": "Ki", "setting": "[1]", "result": "1000 to 5000", "unit": "nM"},
      {"measurement": "viability at 2 µM", "setting": "H929 (myeloma); at 2 μM", "result": 61.2, "unit": "%"},
      {"measurement": "viability at 13 µM", "setting": "H929 (myeloma); at 13 μM", "result": 47.5, "unit": "%"},
      {"measurement": "viability at 50 µM", "setting": "H929 (myeloma); at 50 μM", "result": 32.9, "unit": "%"},
      {"measurement": "% of SALL4 protein reduction", "setting": "SALL4; at 1 μM", "result": "≤25% (≤25% for 0-25% of SALL4 protein reduction)"},
      {"measurement": "% of SALL4 protein reduction", "setting": "SALL4; at 10 μM", "result": ">25% (>25% for 26-74% of SALL4 protein reduction)"},
      {"measurement": "% of SALL4 protein reduction", "setting": "SALL4; at 20 μM", "result": ">25% (>25% for 26-74% of SALL4 protein reduction)"},
      {"measurement": "% of IKZF3 (bottom band) protein reduction", "setting": "IKZF3; at 1 μM", "result": ">25% (>25% for 26-74% of IKZF3 protein reduction)"},
      {"measurement": "% of IKZF3 (upper band) protein reduction", "setting": "IKZF3; at 1 μM", "result": ">25% (>25% for 26-74% of IKZF3 protein reduction)"},
      {"measurement": "% of IKZF3 (bottom band) protein reduction", "setting": "IKZF3; at 10 μM", "result": "≥75% (≥75% for 75-100% of IKZF3 protein reduction)"},
      {"measurement": "% of IKZF3 (upper band) protein reduction", "setting": "IKZF3; at 10 μM", "result": "≥75% (≥75% for 75-100% of IKZF3 protein reduction)"},
      {"measurement": "% of IKZF3 (bottom band) protein reduction", "setting": "IKZF3; at 20 μM", "result": "≥75% (≥75% for 75-100% of IKZF3 protein reduction)"},
      {"measurement": "% of IKZF3 (upper band) protein reduction", "setting": "IKZF3; at 20 μM", "result": "≥75% (≥75% for 75-100% of IKZF3 protein reduction)"}
    ]}
  ]
}
